Reference: patent publication US12616761B2, “CXCR4-targeting compounds” (PROVINCIAL HEALTH SERVICES AUTHORITY, priority 2020, dated 2026)
Like-named read-outs stand apart in the source and are kept apart here. Positions of bridges follow the written chain, without caps; N, C: chain ends. Non-standard residues stand in square brackets, D forms with d. Residues, ends and D or L forms follow the SMILES beside them. 2Nal = N[C@@H](Cc1ccc2ccccc2c1)C(=O)O; Lys(iPr) = CC(C)NCCCC[C@H](N)C(=O)O; hTyr = N[C@@H](CCc1ccc(O)cc1)C(=O)O

How the values were obtained:
CXCR4 [1] = molecular target: T1, CXCR4 (Homo sapiens, UniProt P61073); assay: Competitive binding assay: [125I]SDF-1α displacement on CHO:CXCR4 cells; details: [125I]SDF-1α competition on CHO:CXCR4 cells; given as ranges; read-out: IC50 (nM), Binding Affinity to CXCR4
T1 construct: expressed in transfected cells; host or cells: CHO:CXCR4 cells (gift from Drs. David McDermott and Xiaoyuan Chen, NIH)
Procedure: The Z138 mantle cell lymphoma cell line was given by Dr. Christian Steidl (BC Cancer) as a gift. The CHO:CXCR4 cell line was given by Drs. David McDermott and Xiaoyuan Chen (National Institutes of Health) as a gift. The cell line was cultured in a 5% CO2 atmosphere at 37° C. in a humidified incubator. The Z138 cells were incubated with IMDM medium (Life Technologies Corporations) and the CHO:CXCR4 cells were incubated with F12K medium (Life Technologies Corporations), both of which were supplemented with 10% fetal bovine serum (Sigma-Aldrich), 100 I.U./mL penicillin, and 100 μg/mL streptomycin (Penicillin-Streptomycin Solution).
CHO:CXCR4 cells were seeded at a density of 1×10^5 cells/well in 24-well poly-D-lysine coated plates (Corning BioCoat) and incubated with [^1251]SDF-1α (0.01 nM, PerkinElmer) and competing nonradioactive ligands ([…]). The cells, radioligand, and competing peptides were incubated for 1 h at 27° C. with moderate shaking. Following the incubation period, the supernatant was aspirated, followed by three washes with 1 mL of ice-cold PBS. Cells were harvested with 200 μL of trypsin and counted on a y counter. Data were plotted in GraphPad Prism 7 to determine IC50 values (GraphPad Software, Inc., La Jolla, CA). The values are reported as mean±standard deviation.

[2] = test system: non-Hodgkin lymphoma, renal cell carcinoma, lung cancer, colorectal cancer, and breast cancer xenograft models; details: colorectal and breast cancer xenografts; cited from earlier work
CXCR4 [3] = molecular target: T1, CXCR4; details: read-out: IC50, block of SDF-1α binding to CXCR4; cited from earlier work
small cell lung cancer = small cell lung cancer patients; cited from earlier work

T1 sequence (P61073 whole entry): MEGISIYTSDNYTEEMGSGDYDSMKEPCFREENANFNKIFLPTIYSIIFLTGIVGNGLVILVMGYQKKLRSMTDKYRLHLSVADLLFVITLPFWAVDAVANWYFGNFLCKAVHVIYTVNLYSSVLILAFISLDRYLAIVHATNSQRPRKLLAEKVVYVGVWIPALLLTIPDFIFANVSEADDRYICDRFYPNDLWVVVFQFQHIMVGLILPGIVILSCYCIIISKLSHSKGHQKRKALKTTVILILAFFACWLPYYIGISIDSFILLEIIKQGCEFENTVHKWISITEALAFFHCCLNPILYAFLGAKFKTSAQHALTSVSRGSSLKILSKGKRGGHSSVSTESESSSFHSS

Row | IC50 (CXCR4 [1]) | Compound | other results
1 | 10 to 50 nM | CC(=O)NCCCC[C@@H]1NC(=O)CC[C@H](C(=O)N[C@@H](CCCCNC(C)C)C(N)=O)NC(=O)[C@@H](C)NC(=O)[C@H](Cc2ccc3ccccc3c2)NC(=O)[C@@H](CCCNC(=N)N)NC(=O)[C@H](CCCCNC(C)C)NC(=O)[C@H](CCC(N)=O)NC1=O [cyclo[Lys(Ac)-Gln-Lys(iPr)-D-Arg-2Nal-D-Ala-D-Glu]-Lys(iPr)] (K(Ac)Q[Lys(iPr)][dR][2Nal][dA][dE][Lys(iPr)]-NH2; lactam N-7) | –
2 | 50 to 100 nM | CC(C)NCCCC[C@H](NC(=O)[C@H]1CCC(=O)N[C@@H](Cc2ccccc2)C(=O)N[C@H](Cc2ccc(O)cc2)C(=O)N[C@@H](CCCCNC(C)C)C(=O)N[C@H](CCCNC(=N)N)C(=O)N[C@@H](Cc2ccc3ccccc3c2)C(=O)N[C@H](C)C(=O)N1)C(N)=O [cyclo[Phe-D-Tyr-Lys(iPr)-DArg-2Nal-D-Ala-D-Glu]-Lys(iPr)] (F[dY][Lys(iPr)][dR][2Nal][dA][dE][Lys(iPr)]-NH2; lactam N-7) | –
3 | 1 to 10 nM | CC(=O)NCCCC[C@@H]1NC(=O)CC[C@H](C(=O)N[C@@H](CCCCNC(C)C)C(N)=O)NC(=O)CNC(=O)[C@H](Cc2ccc3ccccc3c2)NC(=O)[C@@H](CCCNC(=N)N)NC(=O)[C@H](CCCCNC(C)C)NC(=O)[C@H](Cc2ccc(O)cc2)NC1=O [cyclo[Lys(Ac)-Tyr-Lys(iPr)-D-Arg-2Nal-Gly-D-Glu]-Lys(iPr)] (K(Ac)Y[Lys(iPr)][dR][2Nal]G[dE][Lys(iPr)]-NH2; lactam N-7) | –
4 | 50 to 100 nM | CC(C)C[C@H]1NC(=O)[C@H](Cc2ccc3ccccc3c2)NC(=O)[C@@H](CCCNC(=N)N)NC(=O)[C@H](CCCCNC(C)C)NC(=O)[C@H](Cc2ccc(O)cc2)NC(=O)[C@H](Cc2ccccc2)NC(=O)CC[C@H](C(=O)N[C@@H](CCCCNC(C)C)C(N)=O)NC1=O [cyclo[Phe-Tyr-Lys(iPr)-D-Arg-2Nal-D-Leu-D-Glu]-Lys(iPr)] (FY[Lys(iPr)][dR][2Nal][dL][dE][Lys(iPr)]-NH2; lactam N-7) | –

Second part, the compound before the results:

Row | Compound | IC50 (CXCR4 [1]) | other results
5 | CC(C)NCCCC[C@H](NC(=O)[C@H]1CCC(=O)N[C@@H](Cc2ccccc2)C(=O)N[C@@H](CCc2ccc(O)cc2)C(=O)N[C@@H](CCCCNC(C)C)C(=O)N[C@H](CCCNC(=N)N)C(=O)N[C@@H](Cc2ccc3ccccc3c2)C(=O)N[C@H](C)C(=O)N1)C(N)=O [cyclo[Phe-hTyr-Lys(iPr)-D-Arg-2-Nal-D-Ala-D-Glu]-Lys(iPr)] (F[hTyr][Lys(iPr)][dR][2Nal][dA][dE][Lys(iPr)]-NH2; lactam N-7) | 50 to 100 nM | –
6 | CC(=O)NCCCC[C@@H]1NC(=O)CC[C@H](C(=O)N[C@@H](CCCCNC(C)C)C(N)=O)NC(=O)[C@@H](C)NC(=O)[C@H](Cc2ccc3ccccc3c2)NC(=O)[C@@H](CCCNC(=N)N)NC(=O)[C@H](CCCCNC(C)C)NC(=O)[C@H](CCC(=O)O)NC1=O [cyclo[Lys(Ac)-Glu-Lys(iPr)-D-Arg-2Nal-D-Ala-D-Glu]-Lys(iPr)] (K(Ac)E[Lys(iPr)][dR][2Nal][dA][dE][Lys(iPr)]-NH2; lactam N-7) | 50 to 100 nM | –
7 | cyclo[Phe-Tyr-Lys(iPr)-D-Arg-2-Nal-Gly-D-Glu]-Lys(iPr)-NH2 [LY2510924] | – | growth of xenograft models [2]: able to inhibit growth; IC50 (CXCR4 [3]): 0.079 nM; treatment efficacy of carboplatin/etoposide chemotherapy (small cell lung cancer): failed to improve treatment efficacy
